Source: the NIST ThermoML archive (doi:10.1021/je0601255)
± gives the expanded uncertainty stated by the source.

How the values were obtained:
[1] = 101 kPa, Liquid; for viscosity: Capillary tube (Ostwald / Ubbelohde) method; for mass density: Pycnometric method
[2] = xn = mol fraction of the nth substance listed; settings: 101 kPa, Liquid, x1 = 1; for viscosity: Capillary tube (Ostwald / Ubbelohde) method; for mass density: Pycnometric method

Row | SMILES | viscosity ([1]; 288.15 K) | mass density ([1]; 288.15 K) | viscosity ([1]; 298.15 K) | mass density ([1]; 298.15 K) | viscosity ([1]; 308.15 K) | mass density ([1]; 308.15 K) | viscosity ([1]; 318.15 K) | mass density ([1]; 318.15 K) | viscosity ([2]; 288.15 K) | mass density ([2]; 288.15 K) | viscosity ([2]; 298.15 K) | mass density ([2]; 298.15 K) | viscosity ([2]; 308.15 K) | mass density ([2]; 308.15 K) | viscosity ([2]; 318.15 K) | mass density ([2]; 318.15 K)
1 | C=C(C)C(=O)OCCO [2-hydroxyethyl 2-methyl-2-propenoate] | 8.234 ± 0.19 mPa·s | 1074.7 ± 2.4 kg/m3 | 5.784 ± 0.13 mPa·s | 1067.1 ± 2.4 kg/m3 | 4.194 ± 0.096 mPa·s | 1057.7 ± 2.4 kg/m3 | 3.181 ± 0.073 mPa·s | 1048.6 ± 2.4 kg/m3 | – | – | – | – | – | – | – | –
2 | C=C(C)C(=O)O [2-methyl-2-propenoic acid] | 1.447 ± 0.031 mPa·s | 1018.3 ± 2.1 kg/m3 | 1.267 ± 0.027 mPa·s | 1009.5 ± 2.1 kg/m3 | 1.078 ± 0.023 mPa·s | 999.4 ± 2.1 kg/m3 | 0.945 ± 0.02 mPa·s | 989.2 ± 2.1 kg/m3 | – | – | – | – | – | – | – | –
3 | C=C(C)C(=O)OCc1ccccc1 [benzyl methacrylate] | 2.871 ± 0.066 mPa·s | 1041.2 ± 2.4 kg/m3 | 2.302 ± 0.053 mPa·s | 1034.7 ± 2.3 kg/m3 | 1.885 ± 0.043 mPa·s | 1025.8 ± 2.3 kg/m3 | 1.58 ± 0.036 mPa·s | 1017 ± 2.3 kg/m3 | – | – | – | – | – | – | – | –
4 | CCCCO [butan-1-ol] | 3.286 ± 0.07 mPa·s | 812.3 ± 1.7 kg/m3 | 2.566 ± 0.055 mPa·s | 805.6 ± 1.7 kg/m3 | 1.998 ± 0.043 mPa·s | 798 ± 1.7 kg/m3 | 1.55 ± 0.033 mPa·s | 790.5 ± 1.6 kg/m3 | – | – | – | – | – | – | – | –

The remaining lines, values ahead:

Row | viscosity ([1]; 288.15 K) | mass density ([1]; 288.15 K) | viscosity ([1]; 298.15 K) | mass density ([1]; 298.15 K) | viscosity ([1]; 308.15 K) | mass density ([1]; 308.15 K) | viscosity ([1]; 318.15 K) | mass density ([1]; 318.15 K) | viscosity ([2]; 288.15 K) | mass density ([2]; 288.15 K) | viscosity ([2]; 298.15 K) | mass density ([2]; 298.15 K) | viscosity ([2]; 308.15 K) | mass density ([2]; 308.15 K) | viscosity ([2]; 318.15 K) | mass density ([2]; 318.15 K) | SMILES
5 | – | – | – | – | – | – | – | – | 3.286 ± 0.07 mPa·s | 812.3 ± 1.7 kg/m3 | 2.566 ± 0.055 mPa·s | 805.6 ± 1.7 kg/m3 | 1.998 ± 0.043 mPa·s | 798 ± 1.7 kg/m3 | 1.55 ± 0.033 mPa·s | 790.5 ± 1.6 kg/m3 | CCCCO [butan-1-ol] + C=C(C)C(=O)O
6 | – | – | – | – | – | – | – | – | 3.286 ± 0.07 mPa·s | 812.3 ± 1.7 kg/m3 | 2.566 ± 0.055 mPa·s | 805.6 ± 1.7 kg/m3 | 1.998 ± 0.043 mPa·s | 798 ± 1.7 kg/m3 | 1.55 ± 0.033 mPa·s | 790.5 ± 1.6 kg/m3 | CCCCO [butan-1-ol] + C=C(C)C(=O)OCCO
7 | – | – | – | – | – | – | – | – | 3.286 ± 0.07 mPa·s | 812.3 ± 1.7 kg/m3 | 2.566 ± 0.055 mPa·s | 805.6 ± 1.7 kg/m3 | 1.998 ± 0.043 mPa·s | 798 ± 1.7 kg/m3 | 1.55 ± 0.033 mPa·s | 790.5 ± 1.6 kg/m3 | CCCCO [butan-1-ol] + C=C(C)C(=O)OCc1ccccc1
